Laboratory results reported in patent publication US20130245064A1, “NOVEL NEUROTRYPSIN INHIBITORS” (priority 2010, published 2013).

How the values were obtained:
[1] = target: T1, human neurotrypsin (Homo sapiens, UniProt P56730); assay: Determination of IC50 for human neurotrypsin; assay type: biochemical; conditions: table of all 14 examples; read-out: Neurotrypsin IC50
T1 sequence (P56730 21-875): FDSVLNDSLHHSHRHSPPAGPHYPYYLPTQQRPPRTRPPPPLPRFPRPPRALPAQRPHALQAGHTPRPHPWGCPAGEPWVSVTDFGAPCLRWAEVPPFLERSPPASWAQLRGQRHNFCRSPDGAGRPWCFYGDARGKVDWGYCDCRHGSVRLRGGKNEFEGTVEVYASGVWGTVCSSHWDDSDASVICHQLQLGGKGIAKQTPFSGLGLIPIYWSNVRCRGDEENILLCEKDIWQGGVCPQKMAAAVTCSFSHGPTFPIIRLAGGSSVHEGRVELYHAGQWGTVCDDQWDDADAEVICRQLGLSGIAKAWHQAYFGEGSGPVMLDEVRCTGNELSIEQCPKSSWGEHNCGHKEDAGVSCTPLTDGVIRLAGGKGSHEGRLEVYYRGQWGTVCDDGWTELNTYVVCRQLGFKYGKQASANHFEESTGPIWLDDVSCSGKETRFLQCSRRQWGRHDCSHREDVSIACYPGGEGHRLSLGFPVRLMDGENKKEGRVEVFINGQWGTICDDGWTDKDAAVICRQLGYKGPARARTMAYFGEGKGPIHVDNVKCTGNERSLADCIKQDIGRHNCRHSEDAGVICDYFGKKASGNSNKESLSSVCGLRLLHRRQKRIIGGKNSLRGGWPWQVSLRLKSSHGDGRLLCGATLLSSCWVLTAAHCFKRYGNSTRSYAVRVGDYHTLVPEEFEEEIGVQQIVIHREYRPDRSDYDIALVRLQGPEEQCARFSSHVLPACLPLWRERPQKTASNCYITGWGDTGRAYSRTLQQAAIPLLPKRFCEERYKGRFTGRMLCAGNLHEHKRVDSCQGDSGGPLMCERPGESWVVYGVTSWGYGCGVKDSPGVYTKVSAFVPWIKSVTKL
Experimental: Determination of IC50 for Human Neurotrypsin
Assessment of the potency of compounds of examples 1-14 in inhibiting the enzymatic activity of human neurotrypsin was performed according to the method described in patent application […]

Row | Molecule | IC50 [1] [µM] | melting point [°C]
1 | CCCCc1ccc(NC(=O)c2ccc(NC(=O)c3ccc(-c4nc5cc(Cl)c(Cl)cc5[nH]4)cc3)cc2O)cc1 [Example 14, N-(4-Butylphenyl)-4-(4-(5,6-dichloro-1H-benzo[d]imidazol-2-yl)-benzamido)-2-hydroxybenzamide] | 1.7 | > 220
2 | O=C(Nc1ccc(C(=O)Nc2ccc(Cl)cc2)c(O)c1)c1ccc(Oc2ccc(Cl)c(Cl)c2)cc1 [Example 5] | 13.9 | > 220
3 | O=C(Nc1ccc(C(=O)Nc2ccc(Cl)cc2)c(O)c1)c1ccc2cc(Cl)c(Cl)cc2n1 [Example 7, N-(4-Chlorophenyl)-4-(6,7-dichloroquinoline-2-carbonyl)amino-2-hydroxybenzamide] | 26.7 | > 220
4 | CC(C)CN(CC(C)C)C(=O)c1ccc(NC(=O)c2ccc(-c3nc4cc(Cl)c(Cl)cc4[nH]3)cc2)cc1O [Example 13, N,N-Diisobutyl-2-hydroxy-4-((5,6-dichloro-1H-benzo[d]imidazol-2-yl)-benzamido)benzamide] | 55.1 | –
5 | 1-(2-Hydroxy-4-(5,6-dichloro-1H-benzo[d]imidazol-2-yl)-benzoyl)-4-phenoxypiperidine [Example 12] | 1.5 | –
6 | 1-(2-Hydroxy-4-(5,6-dichloro-1H-benzo[d]imidazol-2-yl)-benzoyl)-4-benzylpiperidine [Example 10] | 18.3 | –
7 | O=C(Nc1ccc(C(=O)Nc2ccc(Cl)cc2)c(O)c1)c1ccc(-c2ccc(F)cc2)s1 [Example 6] | 3.4 | > 220
8 | O=C(Nc1ccc(C(=O)Nc2ccc(F)cc2F)c(O)c1)c1ccc(-c2nc3cc(Cl)c(Cl)cc3[nH]2)cc1 [Example 11, N-(2,4-Difluorophenyl)-4-(4-(5,6-dichloro-1H-benzo[d]imidazol-2-yl)-benzamido)-2-hydroxybenzamide] | 1.1 | > 220
9 | O=C(Nc1ccc(Cl)cc1)c1ccc(NC(=O)c2sc3ccccc3c2Cl)cc1O [Example 4, N-(4-Chlorophenyl)-4-[(3-chlorobenzo[b]-thiophene-2-carbonyl)amino]-2-hydroxybenzamide] | 55.5 | > 220
10 | O=C(Nc1ccc(Cl)cc1)c1ccc(NC(=O)c2[nH]c3ccc(Cl)cc3c2-c2ccccc2)cc1O [Example 8, N-(4-Chlorophenyl)-4-(5-chloro-3-phenylindole-2-carbonyl)amino-2-hydroxybenzamide] | 10.8 | > 220
11 | O=C(Nc1ccc(C(=O)Nc2ccc(Cl)cc2F)c(O)c1)c1ccc(-c2nc3cc(Cl)c(Cl)cc3[nH]2)cc1 [Example 9, N-(2-Fluoro-4-chloro-phenyl)-4-(4-(5,6-di-chloro-1H-benzo[d]imidazol-2-yl)-benzamido)-2-hydroxybenzamide] | 1.9 | > 220
12 | O=C(Nc1ccccc1F)c1ccc(NC(=O)c2[nH]c3ccc(Cl)cc3c2-c2ccccc2)cc1O [Example 2, N-(2-Fluorophenyl)-4-(5-chloro-3-phenyl-indole-2-carbonyl)amino-2-hydroxybenzamide] | 32.8 | > 220
13 | O=C(Nc1ccc(C(=O)Nc2ccc(Cl)cc2)c(O)c1)c1ccc(-c2ccc(F)cc2)cc1 [Example 3] | 7.6 | > 220
